Where a name gives a salt, the structure may show the parent alone. Read-outs that look alike come from different tables or passages of the source.
Experiments:
S. aureus = assay: Combinational study (checkerboard microdilution) with standard drugs; assay type: cell-based
Method: The Fractional Inhibitory Concentration Index (FICI) was calculated for each test compound and reference drug to find the combinational effect.
In a 96-well flat bottom plate, the reference drug with 4× MIC was serially diluted horizontally. The test compounds with 4× MIC were serially diluted two-fold outside the plate in 1.5 mL Eppendorf's using Mueller Hinton Broth (MHB). These two serially diluted compounds were combined to create drug-compound combinations in the plate. The reference drug (horizontally) and tested compounds (vertically) alone were serially diluted for MIC determination. 100 μL of the standardized bacterial inoculum with a turbidity equivalent to a 0.5 McFarland standard were diluted 1 : 100 in Mueller Hinton Broth and inoculated in the plates. The plates were incubated for 24 hours at 37 °C. After incubation, 10 μL of freshly prepared Alamar blue (Himedia) was added to each well of the plate, and the plates were further incubated at 37 °C for 30 minutes. After incubation, the plates were visually observed. […] The FICI was calculated using the formula FICI = FIC of compound + FIC of drug. The calculation followed is FICI (CA/(MICA)) + (CB/(MICB)), where CA is the MIC of the compound in combination, CB is the MIC of the drug in combination, and MICA and MICB are the MIC values of individual compounds and drugs, respectively. The range selection followed the interpretation criteria. The FICI range of 0.5 to 4 indicates indifference, ≤ or =0.5 indicates synergy and >4 indicates antagonism.[57]

S. aureus ATCC 29213 = assay: MIC, broth microdilution (CLSI), Alamar blue; assay type: cell-based; conditions: S. aureus ATCC 29213, 24 hours at 37 °C, read-out: Minimum inhibitory concentration (MIC) S. aureus
Source text: (§1) The bacterial strains S. aureus ATCC 29213, MRSA ATCC 15187, E. coli ATCC 25922, and P. aeruginosa ATCC 27853 were obtained from ATCC (American Type Culture Collection). Cation-adjusted Mueller–Hinton broth (MHB; Becton–Dickinson, Cockeysville, MD) was used to determine the minimum inhibitory concentration (MIC). Mueller–Hinton agar (MHA; Becton–Dickinson) was used for minimum bactericidal concentration (MBC) studies. Alamar blue (Himedia) was used to detect the MIC value.
(§2) The antibacterial activity of the compounds against S. aureus ATCC 29213, MRSA ATCC 15187, E. coli ATCC 25922, and P. aeruginosa ATCC 27853 was determined through a broth microdilution method according to the guidelines of the Clinical and Laboratory Standards Institute (CLSI).[50] […] Growth control and media control were employed along with 2% DMSO as vehicle control.
(§3) In a 96-well flat bottom plate, the test compounds were two-fold serially diluted in Mueller Hinton Broth (MHB). The final concentrations of the compounds ranged from 100 to 0.08 μM. 100 μL of standardized bacterial inoculum with turbidity equivalent to 0.5 McFarland standard (1.5 × 10^8 CFU mL^−1) was diluted 1 : 100 (1.5 × 10^6 CFU mL^−1) in Mueller Hinton Broth and inoculated in the plates.[51] The plates were incubated for 24 hours at 37 °C. After incubation, 10 μL of freshly prepared Alamar blue (Himedia) was added to each well of the plate, and plates were further incubated at 37 °C for 30 minutes. After incubation, the fluorescence was measured at excitation/emission of 540–570/580–610 nm. The percentage inhibition and viability were calculated for the controls, and the Gompertz curve was utilized to estimate the minimum inhibitory concentration.

P. aeruginosa ATCC 27853 = assay: MIC, broth microdilution (CLSI), Alamar blue; assay type: cell-based; conditions: P. aeruginosa ATCC 27853, 24 hours at 37 °C, read-out: Minimum inhibitory concentration (MIC) P. aeruginosa
Source text: as §1, §2, §3

E. coli ATCC 25922 = assay: MIC, broth microdilution (CLSI), Alamar blue; assay type: cell-based; conditions: E. coli ATCC 25922, 24 hours at 37 °C, read-out: Minimum inhibitory concentration (MIC) E. coli
Source text: as §1, §2, §3

MRSA ATCC 15187 = assay: MIC, broth microdilution (CLSI), Alamar blue; assay type: cell-based, Methicillin-resistant S. aureus; conditions: MRSA ATCC 15187, 24 hours at 37 °C, read-out: Minimum inhibitory concentration (MIC) MRSA
Source text: as §1, §2, §3

[1] = Staphylococcus aureus, ATCC29213
[2] = Pseudomonas aeruginosa, ATCC27853, 24 h

SMILES	MIC combination (drug) (S. aureus; MIC of ciprofloxacin in combination with IBC, S. aureus) [µM]	MIC combination (drug) (S. aureus; MIC of ciprofloxacin in combination with IBC-2, S. aureus) [µM]	MIC combination (drug) (S. aureus; MIC of ciprofloxacin in combination with IBC-3, S. aureus) [µM]	MIC (S. aureus ATCC 29213) [µM]	MIC (S. aureus ATCC 29213; [1]) [µM]	MIC (P. aeruginosa ATCC 27853) [µM]	MIC (P. aeruginosa ATCC 27853; [2]) [µM]	MIC (E. coli ATCC 25922) [µM]	MIC (E. coli ATCC 25922; Escherichia coli, ATCC25922) [µM]	MIC (MRSA ATCC 15187) [µM]	MIC (MRSA ATCC 15187; Staphylococcus aureus) [µM]
O=C(O)c1cn(C2CC2)c2cc(N3CCNCC3)c(F)cc2c1=O [Ciprofloxacin, ciprofloxacin hydrochloride monohydrate, reference compound]	0.156	0.3125	0.3125	–	–	–	–	–	–	–	–
COc1ccc(/C=C/C(=O)c2ccc(OC)c(CC=C(C)C)c2OC)cc1 [IBC-4, (E)-1-(2,4-dimethoxy-3-(3-methylbut-2-en-1-yl)phenyl)-3-(4-methoxyphenyl)prop-2-en-1-one]	–	–	–	>100	> 100	>100	> 100	>100	> 100	>100	> 100
CC(C)=CCc1c(O)ccc(C(=O)/C=C/c2ccc(OCC(=O)Nc3ccc(Cl)cn3)cc2)c1O [IBC-6, (E)-N-(5-chloropyridin-2-yl)-2-(4-(3-(2,4-dihydroxy-3-(3-methylbut-2-en-1-yl)phenyl)-3-oxoprop-1-en-1-yl)phenoxy) acetamide]	–	–	–	>100	> 100	>100	> 100	>100	> 100	>100	> 100
CC(C)=CCc1c(O)ccc(C(=O)/C=C/c2ccc(OCC(=O)Nc3c(C)n(C)n(-c4ccccc4)c3=O)cc2)c1O [IBC-7, (E)-2-(4-(3-(2,4-dihydroxy-3-(3-methylbut-2-en-1-yl)phenyl)-3-oxoprop-1-en-1-yl)phenoxy)-N-(1,5-dimethyl-3-oxo-2-phenyl-2,3-dihydro-1H-pyrazol-4-yl) acetamide]	–	–	–	>100	> 100	>100	> 100	>100	> 100	>100	> 100

Other lines, results leading:

MIC combination (drug) (S. aureus; MIC of ciprofloxacin in combination with IBC, S. aureus) [µM]	MIC combination (drug) (S. aureus; MIC of ciprofloxacin in combination with IBC-2, S. aureus) [µM]	MIC combination (drug) (S. aureus; MIC of ciprofloxacin in combination with IBC-3, S. aureus) [µM]	MIC (S. aureus ATCC 29213) [µM]	MIC (S. aureus ATCC 29213; [1]) [µM]	MIC (P. aeruginosa ATCC 27853) [µM]	MIC (P. aeruginosa ATCC 27853; [2]) [µM]	MIC (E. coli ATCC 25922) [µM]	MIC (E. coli ATCC 25922; Escherichia coli, ATCC25922) [µM]	MIC (MRSA ATCC 15187) [µM]	MIC (MRSA ATCC 15187; Staphylococcus aureus) [µM]	SMILES
–	–	–	>100	> 100	>100	> 100	>100	> 100	>100	> 100	CC(C)=CCc1c(OCC(=O)N2CCOCC2)ccc(C(=O)/C=C/c2ccc(OCC(=O)N3CCOCC3)cc2)c1OCC(=O)N1CCOCC1 [IBC-5, (E)-2,2′-((2-(3-methylbut-2-en-1-yl)-4-(3-(4-(2-morpholino-2-oxoethoxy)phenyl)acryloyl)-1,3-phenylene)bis(oxy)) bis (1-morpholinoethan-1-one)]
–	–	–	>100	> 100	>100	> 100	>100	> 100	>100	> 100	CC(C)=CCc1c(OCC(=O)N2CCCC2)ccc(C(=O)/C=C/c2ccc(OCC(=O)N3CCCC3)cc2)c1O [IBC-8, (E)-1-(2-hydroxy-3-(3-methylbut-2-en-1-yl)-4-(2-oxo-2-(pyrrolidin-1-yl)ethoxy)phenyl)-3-(4-(2-oxo-2-(pyrrolidin-1-yl)ethoxy)phenyl) prop-2-en-1-one]
–	–	–	>100	> 100	>100	> 100	>100	> 100	>100	> 100	CC(C)=CCc1c(O)ccc(C(=O)/C=C/c2ccc(OCC(=O)Nc3cc(C)[nH]n3)cc2)c1O [IBC-9, (E)-2-(4-(3-(2,4-dihydroxy-3-(3-methylbut-2-en-1-yl)phenyl)-3-oxoprop-1-en-1-yl)phenoxy)-N-(5-methyl-1H-pyrazol-3-yl)acetamide]
–	–	–	>100	> 100	>100	> 100	>100	> 100	>100	> 100	CC(C)=CCc1c(O)ccc(C(=O)/C=C/c2ccc(OCC(=O)N3CCSCC3)cc2)c1O [IBC-10, (E)-1-(2,4-dihydroxy-3-(3-methylbut-2-en-1-yl)phenyl)-3-(4-(2-oxo-2-thiomorpholinoethoxy)phenyl)-prop-2-en-1-one]
–	–	–	–	–	–	2.8	–	–	–	–	NC[C@H]1O[C@H](O[C@H]2[C@H](O)[C@@H](O[C@H]3O[C@H](CO)[C@@H](O)[C@H](N)[C@H]3O)[C@H](N)C[C@@H]2N)[C@H](O)[C@@H](O)[C@@H]1O [Kanamycin, kanamycin sulfate, reference compound]

From PMC11484510, “Antibacterial activity of structurally diverse natural prenylated isobavachalcone derivatives” (RSC Advances, 2024)
